Laboratory results from US20240208998A1, “COMPOUNDS FOR USE IN THE TREATMENT OF HYPERPROLIFERATIVE DISORDERS” (FUNDACIÓ PRIVADA INSTITUT D'INVESTIGACIÓ ONCOLÓGICA DE VALL …, priority 2021, published 2024).
pEC50: −log10 of the molar value.

What was measured:
Type in all cases: cell-based
HCT116 (colon) = assay: Antiproliferative activity on other tumour cell lines (CellTiter-Glo): HCT116; conditions: Homo sapiens; HCT 116, 72 h of treatment
Protocol: (§1) Other human adherent cancer cell lines were cultured in their corresponding cell medium (as specified in Table 4) supplemented with 10% FBS (v/v) and 1% P/S (v/v). Twenty-four hours prior to treatment with the compounds to be tested (Examples 1, 12 and 21), the cells were seeded in 96-well plates at different densities depending of the cell line (as specified in Table 4).
(§2) Depending on the cell line, a 50, 125 or 250 μM solution of the compounds of examples 1, 12 and 21 were prepared in complete medium, and then serially diluted (1:2) (Table 5). A solution of complete medium with DMSO was used as a vehicle control.
(§3) Fifty microliters of each serially diluted compound solution was added by medium replacement in two wells (by duplicate). After 48 h of treatment, 50 μL of fresh 2X serially diluted compound solution was added to the corresponding wells of the plate (100 μL of final volume/well). After twenty-four additional hours (a total of 72 h of treatment), an equal volume (100 μL) of CellTiter-Glo Reagent (Promega) was added to each well, plates were shaken during 2 min and incubated at rt for 10 min. Luminescence was recorded using a Spark multimode microplate reader and an integration time of 1 s per well.

MDA-MB-468 (breast) = assay: Antiproliferative activity on other tumour cell lines (CellTiter-Glo): MDA-MB-468; conditions: Homo sapiens, MD-MB-468, 72 h of treatment
Protocol: as §1, §2, §3

Hop62 (lung) = assay: Antiproliferative activity on other tumour cell lines (CellTiter-Glo): Hop62; conditions: Homo sapiens, HOP-62; Hop62, 72 h of treatment
Protocol: as §1, §2, §3

LN229 (glioblastoma) = assay: Antiproliferative activity on other tumour cell lines (CellTiter-Glo): LN229; conditions: Homo sapiens, LN-229; LN229, 72 h of treatment
Protocol: as §1, §2, §3

MCF7 (breast) = assay: Antiproliferative activity on other tumour cell lines (CellTiter-Glo): MCF7; conditions: Homo sapiens; MCF7, 72 h of treatment
Protocol: as §1, §2, §3

SMILES	pEC50 (HCT116 (colon))	pEC50 (MDA-MB-468 (breast))	pEC50 (Hop62 (lung))	pEC50 (LN229 (glioblastoma))	pEC50 (MCF7 (breast))
Cc1[nH]c2ccccc2c1-c1csc(NC(=O)Cc2c[nH]c3ccc(F)cc23)n1 [Example 12, 2-(5-fluoro-1H-indol-3-yl)-N-[4-(2-methyl-1H-indol-3-yl)thiazol-2-yl]acetamide]	5.17	5.00	4.92	5.23	4.99
Cc1[nH]c2ccccc2c1-c1csc(NC(=O)Cc2c[nH]c3ccc(O)cc23)n1 [Example 21, 2-(5-hydroxy-1H-indol-3-yl)-N-[4-(2-methyl-1H-indol-3-yl)thiazol-2-yl]acetamide]	4.79	5.04	4.09	5.48	4.89
